# Reference: PMC4275348 (Molecular microbiology, 2014)
# Numbering of substitutions follows the chain as printed.
# Experiments:
# LuxN [1] = biological target: T1, LuxN (Vibrio campbellii, UniProt A7MRY4); format: cell-based, Vibrio harveyi; details: for effect on light production (antagonist activity) / reduction in light production: 1 μM AHL with 20 nM AI-1, V. harveyi TL25; for mechanism of antagonism: IC50 values measured at various concentrations of AI-1
# LuxN [2] = biological target: T1, LuxN; details: 1 μM AHL; V. harveyi TL25
# luxN^L166A/H210N = luxN^L166A/H210N (Vibrio campbellii, UniProt A7MRY4, H210N/L166A); details: AHLs added at 1 μM
# LuxN^L166A = LuxN^L166A (Vibrio campbellii, UniProt A7MRY4, L166A)
# LuxN^H210N = biological target: T2, LuxN^H210N (Vibrio campbellii, UniProt A7MRY4, H210N); experiment: Bioluminescence of V. harveyi XK006 carrying luxN H210N; format: cell-based, Vibrio harveyi; details: AHLs supplied at 10 μM
# T2 sequence (A7MRY4 1-849 H210N): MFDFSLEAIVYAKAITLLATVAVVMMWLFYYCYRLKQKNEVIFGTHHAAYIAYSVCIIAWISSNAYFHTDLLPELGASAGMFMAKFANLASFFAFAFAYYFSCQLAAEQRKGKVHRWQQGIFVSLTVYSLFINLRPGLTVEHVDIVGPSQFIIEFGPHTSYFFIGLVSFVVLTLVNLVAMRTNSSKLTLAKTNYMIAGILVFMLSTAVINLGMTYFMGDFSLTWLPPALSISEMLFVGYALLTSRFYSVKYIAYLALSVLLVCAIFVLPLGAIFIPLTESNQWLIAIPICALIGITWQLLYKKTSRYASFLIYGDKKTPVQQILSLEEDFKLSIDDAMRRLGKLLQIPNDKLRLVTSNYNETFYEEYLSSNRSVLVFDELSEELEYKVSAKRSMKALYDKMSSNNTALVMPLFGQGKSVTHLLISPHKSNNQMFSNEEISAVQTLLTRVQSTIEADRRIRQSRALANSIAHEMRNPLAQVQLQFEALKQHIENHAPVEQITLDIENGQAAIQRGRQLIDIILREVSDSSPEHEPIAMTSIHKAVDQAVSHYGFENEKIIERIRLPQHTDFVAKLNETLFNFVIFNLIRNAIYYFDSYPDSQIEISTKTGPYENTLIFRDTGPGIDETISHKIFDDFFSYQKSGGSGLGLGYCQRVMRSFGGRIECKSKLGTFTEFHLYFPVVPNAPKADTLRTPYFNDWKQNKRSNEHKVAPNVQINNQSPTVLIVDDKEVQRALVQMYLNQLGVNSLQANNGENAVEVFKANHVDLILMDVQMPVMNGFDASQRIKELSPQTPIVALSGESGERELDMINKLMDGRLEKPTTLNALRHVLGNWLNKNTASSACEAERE
# luxN^T159I/Y193K = biological target: T3, luxN^T159I/Y193K (Vibrio campbellii, UniProt A7MRY4, N193K/T159I); experiment: Bioluminescence of V. harveyi XK006 carrying luxN T159I/Y193K; format: cell-based, Vibrio harveyi
# T3 sequence (A7MRY4 1-849 T159I/N193K): T2 sequence (A7MRY4 1-849 H210N) with T159I, N193K, N210H
# LuxN^G147D/Y194H = biological target: T4, LuxN^G147D/Y194H (Vibrio campbellii, UniProt A7MRY4, G147D/Y194H); experiment: Bioluminescence of V. harveyi XK006 carrying luxN G147D/Y194H; format: cell-based, Vibrio harveyi
# T4 sequence (A7MRY4 1-849 G147D/Y194H): T2 sequence (A7MRY4 1-849 H210N) with G147D, Y194H, N210H
# luxN^S184I/S230P = biological target: T5, luxN^S184I/S230P (Vibrio campbellii, UniProt A7MRY4, S184I/S230P); experiment: Bioluminescence of V. harveyi XK006 carrying luxN S184I/S230P; format: cell-based, Vibrio harveyi
# T5 sequence (A7MRY4 1-849 S184I/S230P): T2 sequence (A7MRY4 1-849 H210N) with S184I, N210H, S230P
compound,measurement,setting,value
CC(=O)CC(=O)NC1CCOC1=O (stereo not drawn) [3O-C4 HSL],effect on light production (antagonist activity),LuxN [1],did not decrease light production
same,induction of light production,LuxN [2],did not induce light production
CCCC(=O)CC(=O)NC1CCOC1=O (stereo not drawn) [3O-C6 HSL],light production,luxN^L166A/H210N,detected
CCCCCC(=O)CC(=O)NC1CCOC1=O (stereo not drawn) [3O-C8 HSL],light production,luxN^L166A/H210N,produced maximal light
same,detection (light production),LuxN^L166A,only modest detection
CCCC(O)CC(=O)N[C@H]1CCOC1=O (stereo partly drawn) [3OH-C6 HSL],effect on light production (antagonist activity),LuxN [1],little effect on light production
CCCCCCCC(O)CC(=O)N[C@H]1CCOC1=O (stereo partly drawn) [3OH-C10 HSL],reduction in light production,LuxN [1],30 fold
CCCCCCCCCC(O)CC(=O)N[C@H]1CCOC1=O (stereo partly drawn) [3OH-C12 HSL],reduction in light production,LuxN [1],100 fold
CCCCCC(=O)N[C@H]1CCOC1=O [C6 HSL],induction of light production,LuxN^H210N,activated modest light production
same,light production,luxN^L166A/H210N,detected
CCCCCCCCCC(=O)N[C@H]1CCOC1=O [C10 HSL],mechanism of antagonism,LuxN [1],behaved similarly to 3O-C12 HSL
CCCCCCCCCCCC(=O)N[C@H]1CCOC1=O [C12 HSL],response (dose-dependent light production),luxN^T159I/Y193K,none responded
same,response (dose-dependent light production),LuxN^G147D/Y194H,none responded
same,response (dose-dependent light production),luxN^S184I/S230P,none responded
phenoxy-thiolactone [PTL],mechanism of antagonism,LuxN [1],behaved similarly to 3O-C12 HSL
